In the supplement of paper PMC10307832:

How the values were obtained:
Experiment in all cases: relative viability (nuclei count vs DMSO), 5 days (fraction); higher = more cells survive
NCI-H1666 = tested on: NCI-H1666
How it was run: (§1)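 Five library-drug doses in √10 steps were combined with a fixed anchor-drug dose, or a single drug was given alone, by pin tool to lung cancer cell lines in 1536-well plates the day after seeding. Nuclei were stained and counted after 5 days. Relative viability is the nuclei count in treated wells over that in vehicle wells, taken as the median of duplicate plates.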

CAL-12T = tested on: CAL-12T
How it was run: as §1

NCI-H1650 = tested on: NCI-H1650
How it was run: as §1

HCC-366 = tested on: HCC-366
How it was run: as §1

NCI-H838 = tested on: NCI-H838
How it was run: as §1

NCI-H2023 = tested on: NCI-H2023
How it was run: as §1

COR-L23 = tested on: COR-L23
How it was run: as §1

SW 900 = tested on: SW 900
How it was run: as §1

LK-2 = tested on: LK-2
How it was run: as §1

201T = tested on: 201T
How it was run: as §1

EKVX = tested on: EKVX
How it was run: as §1

NCI-H3122 = tested on: NCI-H3122
How it was run: as §1

Compound: COc1cc(N2CCC(C(N)=O)CC2)ccc1Nc1nc(N)c(Cl)c(Nc2ccccc2S(=O)(=O)C(C)C)n1 [HG-5-88-01] + N=C(N)NC(=N)NCCc1ccccc1 [Phenformin] (partner 250 µM)
- relative viability (NCI-H1666; first compound 0.04 µM): 0.581
- relative viability (NCI-H1666; first compound 0.1265 µM): 0.57
- relative viability (NCI-H1666; first compound 0.4 µM): 0.544
- relative viability (NCI-H1666; first compound 1.265 µM): 0.558
- relative viability (NCI-H1666; first compound 4 µM): 0.459
- relative viability (CAL-12T; first compound 0.04 µM): 0.543
- relative viability (CAL-12T; first compound 0.1265 µM): 0.572
- relative viability (CAL-12T; first compound 0.4 µM): 0.533
- relative viability (CAL-12T; first compound 1.265 µM): 0.392
- relative viability (CAL-12T; first compound 4 µM): 0.253
- relative viability (NCI-H1650; first compound 0.04 µM): 0.452
- relative viability (NCI-H1650; first compound 0.1265 µM): 0.386
- relative viability (NCI-H1650; first compound 0.4 µM): 0.254
- relative viability (NCI-H1650; first compound 1.265 µM): 0.236
- relative viability (NCI-H1650; first compound 4 µM): 0.259
- relative viability (HCC-366; first compound 0.04 µM): 0.685
- relative viability (HCC-366; first compound 0.1265 µM): 0.634
- relative viability (HCC-366; first compound 0.4 µM): 0.581
- relative viability (HCC-366; first compound 1.265 µM): 0.681
- relative viability (HCC-366; first compound 4 µM): 0.476
- relative viability (NCI-H838; first compound 0.04 µM): 0.505
- relative viability (NCI-H838; first compound 0.1265 µM): 0.558
- relative viability (NCI-H838; first compound 0.4 µM): 0.411
- relative viability (NCI-H838; first compound 1.265 µM): 0.368
- relative viability (NCI-H838; first compound 4 µM): 0.313
- relative viability (NCI-H2023; first compound 0.04 µM): 0.521
- relative viability (NCI-H2023; first compound 0.1265 µM): 0.466
- relative viability (NCI-H2023; first compound 0.4 µM): 0.473
- relative viability (NCI-H2023; first compound 1.265 µM): 0.411
- relative viability (NCI-H2023; first compound 4 µM): 0.34
- relative viability (COR-L23; first compound 0.04 µM): 0.458
- relative viability (COR-L23; first compound 0.1265 µM): 0.407
- relative viability (COR-L23; first compound 0.4 µM): 0.406
- relative viability (COR-L23; first compound 1.265 µM): 0.377
- relative viability (COR-L23; first compound 4 µM): 0.39
- relative viability (SW 900; first compound 0.04 µM): 0.592
- relative viability (SW 900; first compound 0.1265 µM): 0.545
- relative viability (SW 900; first compound 0.4 µM): 0.622
- relative viability (SW 900; first compound 1.265 µM): 0.671
- relative viability (SW 900; first compound 4 µM): 0.408
- relative viability (LK-2; first compound 0.04 µM): 0.516
- relative viability (LK-2; first compound 0.1265 µM): 0.394
- relative viability (LK-2; first compound 0.4 µM): 0.176
- relative viability (LK-2; first compound 1.265 µM): 0.352
- relative viability (LK-2; first compound 4 µM): 0.198
- relative viability (201T; first compound 0.04 µM): 0.54
- relative viability (201T; first compound 0.1265 µM): 0.452
- relative viability (201T; first compound 0.4 µM): 0.479
- relative viability (201T; first compound 1.265 µM): 0.547
- relative viability (201T; first compound 4 µM): 0.397
- relative viability (EKVX; first compound 0.04 µM): 0.276
- relative viability (EKVX; first compound 0.1265 µM): 0.262
- relative viability (EKVX; first compound 0.4 µM): 0.204
- relative viability (EKVX; first compound 4 µM): 0.226
- relative viability (NCI-H3122; first compound 0.04 µM): 0.216
- relative viability (NCI-H3122; first compound 0.1265 µM): 0.17
- relative viability (NCI-H3122; first compound 0.4 µM): 0.146
- relative viability (NCI-H3122; first compound 1.265 µM): 0.129
- relative viability (NCI-H3122; first compound 4 µM): 0.15
